Results published in patent US12391672B2, “Solid forms comprising (S)-4-(4-(4-(((2-(2,6-dioxopiperidin-3-yl)-1-oxoisoindolin-4-yl)oxy)methyl)benzyl)piperazin-1-yl)-3-fluorobenzonitrile and salts thereof, and compositions comprising and methods of using the same” (Celgene Corporation, priority 2019, dated 2025).
Converted amounts (≈) assume the structure as drawn. “And” between values parts separate entries of the source, which are not always exact repeats. Identical values can stand only once.

Key:
Assay type in all cases: physicochemical
[1] = Solubility determination (15 minutes at room temperature, HPLC)
Method: 1 mL of buffer or of ultrapure (resistivity≥18.2 Mf cm) water was added to a pre-weighed, approximately twenty milligram aliquot of the substance to be measured. The resulting suspensions were stirred for 15 minutes at room temperature with magnetic stirrers. The suspensions were centrifuged and filtered through Millipore 0.2 μm PVDF filters, and the concentration of each filtrate (i.e., saturated solution) was determined using a general HPLC method. The pH of each saturated solution was measured with a Metrohm 713 pH meter.
To assess whether Form K and Form K′ are likely to have different bioavailabilities, comparative solubility measurements were carried out in physiologically relevant media. Samples of Form K and Form K′ were separately equilibrated in pure water, pH 2.0 buffer, and pH 6.8 buffer for fifteen minutes, and the solids were then separated from the solvents. The concentration of the compound in the filtrate (i.e., the solubility) was assessed in each case, and the solid residues were also monitored by powder X-ray diffraction. All six solid residues correspond to Form K, confirming that Form K′ rapidly incorporates water into its lattice when suspended in an aqueous environment even when the solubility is low. While the solubilities in pure water and at pH 6.8 were below the limit of quantitation of 0.0001 mg/mL, the solubilities at pH 2.0 could be measured. […] Thus, the bioavailabilities of the two forms are expected to be similar, and precise control of the water content (and, thereby, the solid form) is presumably not necessary from a scientific point of view. Given that the critical water activity is in the range aH2O=0.11-0.17, the hydrated Form K is likely to be the more easily stabilized of the two forms under ambient laboratory conditions.

[2] = Dynamic vapor sorption / hygroscopicity; conditions: for hygroscopicity: DVS, class by mass gain at 85% r.h.; for solid form after DVS cycle: after the DVS humidity cycle
Method: Projekt Messtechnik (now ProUmid) SPS11-100n. The sample was placed on an aluminum holder on top of a microbalance and allowed to equilibrate at 50% r.h. before starting one of the following pre-defined humidity programs (1 cycle): • hold 2 h at 50% r.h., • decrease humidity −5% r.h. h^−1 for 10 h (i.e., from 50% r.h. to 0% r.h.), • hold 5 h at […]., • increase humidity +5% r.h. h^−1 for 19 h (i.e., from 0% r.h. to 95% r.h.), • hold 5 h at 95% r.h., • decrease humidity −5% r.h. h^−1 for 9 h (i.e., from 95% r.h. to 50% r.h.), • hold 2 h at 50% r.h. or • hold 2 h at 50% r.h., • increase humidity +5% r.h. h^−1 for 9 h (i.e., from 50% r.h. to 95% r.h.), • hold 5 h at 95% r.h., • decrease humidity −5% r.h. h^−1 for 19 h (i.e., from 95% r.h. to 0% r.h.), • hold 5 h at 0% r.h., • increase humidity +5% r.h. h^−1 for 10 h (i.e., from 0% r.h. to 50% r.h.), • hold 2 h at 50% r.h.
The hygroscopicity was classified based on the mass gain at 85% r.h. relative to the initial mass as follows: deliquescent (sufficient water adsorbed to form a liquid), very hygroscopic (mass increase of […]), hygroscopic (mass increase of <15% but ≥2%), slightly hygroscopic (mass increase of <2% but ≥0.2%), or non-hygroscopic (mass increase of <0.2%).

[3] = Critical water activity of hydrochloride Form L and Form N; conditions: for form after slurry (XRPD): water/acetone
Method: Determination of critical water activity for Form L and Form N: 50 mg of Form L was suspended in 0.5-1 ml of water/acetone solution with specific water activity. The solutions were stirred at RT or 60′° C. Form conversion was monitored by XRPD over 2 weeks.

[4] = Solid state stability under accelerated storage conditions
Method: Form A was not isolated directly as a wet cake but formed only upon drying of Form E in polymorphism studies. […] Small quantities of Form A were generated by dissolving a crude Compound 1 in MEK at high temperature, followed by fast cooling to room temperature, filtration and drying. DSC and TGA data were obtained for samples of Form A and following storage for 1 week at 60° C. and 60° C./75% RH. […] TGA analysis confirmed that this broad endotherm was most likely due to moisture uptake under the accelerated storage conditions. Most of the weight loss of 0.82% in this sample occurred in a single step at less than 75° C. By contrast, weigh loss was a two-step process at the initial time point. […] The residual solvent initially present in the sample was lost upon storage of the sample at 60° C. (0.13% weight loss between 25 to 150° C.).
Form B could be obtained from a process involving methyl acetate. […] HPLC traces were taken of the samples of Form B and following storage for 2 week at 60° C. and 60° C./75% RH. […] Several small degradation products were seen to grow especially in the sample stored at 60° C. Chiral instability was also observed in the sample stored at 60° C./75% RH.
Physical stability: Visually, all samples of Form K were white colored powder with no apparent change in color in the samples stored under accelerated conditions (40° C., 40° C./75% RH, 60° C., 60° C./75% RH and sample stored in light chamber in clear vials exposed to light and covered in aluminum foil) for 14 d relative to the sample stored refrigerated and under ambient conditions.
Solid state chemical stability: HPLC analysis were performed on Form K samples stored under the accelerated stability conditions. […] Based on the HPLC analysis data, there is a measurable but small change in the chemical stability of Form K under the accelerated conditions of temperature, humidity and exposure to light over the 14 d period.
Solid state chiral stability: Chiral stability of Form K samples stored under accelerated stability conditions was tested. There was ˜2.9% of the R-enantiomer (97.1 area % of the active S-isomer) in the initial sample. […]
The chiral purity (area % of S-isomer) remained […] under the accelerated stability conditions.

[5] = Solubility of polymorphic forms in physiologically relevant media and final pH
Excerpt: Solubility data of the several polymorphic forms of Compound 1 in physiologically relevant media and the final pH of these solutions are summarized in the following tables.

[6] = Competitive slurry and slurry stability experiments; conditions: water, prolonged stirring
Method: Form B was obtained at room temperature while form C was obtained at 45° C. in acetone alone.
The HBr salt was largely insoluble in various buffers when 1 mg/mL slurries were prepared and the mother liquor concentration determined (by HPLC): <0.05 mg/mL in all buffers tested.

[7] = Storage at controlled relative humidities (Form K / Form K′)
Excerpt: It was noticed that after Form K was dried, the XRPD peaks of Form K shifted to a higher value and the resulting XRPD pattern is called Form K′. To further understand the relationships between the two forms, free base Form K and Form K′ were placed on XRPD sample holders and stored in a closed Jars with saturated salt solutions for RH controls at ambient temperature, respectively. […] The XRPD diffractograms of the samples after 2-day storage are presented in FIG. 132 and FIG. 133, respectively. […] Since the peaks of Form K shifted to higher 2-theta value as Form K loses water molecules to Form K′, Form K and Form K′ are on a continuum.

[8] = relative humidity from about 5% to about 95%

For Cl.N#Cc1ccc(N2CCN(Cc3ccc(COc4cccc5c4CN(C4CCC(=O)NC4=O)C5=O)cc3)CC2)c(F)c1 (centres unmarked), the “aqueous solubility for the free base component” value ([1]; water, sample changed (solid-form transformation or gel), value may not represent the initial form) was 4.1 mg/mL and 7.2 mM, the hygroscopicity [2] was “hygroscopic (hygroscopic (mass increase of <15% but ≥2%))” and the “solid form after DVS cycle” value [2] was “remains as Form A”. For the same compound, the DVS mass increase [2, 8] was “about 11.7%”.
In the case of Cl.N#Cc1ccc(N2CCN(Cc3ccc(COc4cccc5c4CN([C@H]4CCC(=O)NC4=O)C5=O)cc3)CC2)c(F)c1, the “critical water activity (Form L to Form N)” value ([3]; 60° C.) is reported as 0.4-0.5, the “critical water activity (Form L to Form N)” value ([3]; RT) is reported as 0.2-0.4 and the “form after slurry (XRPD)” value ([3]; Aw 0.1, RT) is reported as “Form L”. The “form after slurry (XRPD)” value ([3]; Aw 0.2, 60° C.) was “Form L”, the “form after slurry (XRPD)” value ([3]; Aw 0.2, RT) was “Form L” and the “form after slurry (XRPD)” value ([3]; Aw 0.3, 60° C.) was “Form L”. The “form after slurry (XRPD)” value ([3]; Aw 0.3, RT) was “Form AA”, the “form after slurry (XRPD)” value ([3]; Aw 0.4, 60° C.) was “Form L” and the “form after slurry (XRPD)” value ([3]; Aw 0.4, RT) was “Form N”. The “form after slurry (XRPD)” value ([3]; Aw 0.5, 60° C.) was “Form N”, the “form after slurry (XRPD)” value ([3]; Aw 0.5, RT) was “Form N” and the hygroscopicity [2] was “slightly hygroscopic (slightly hygroscopic (mass increase of <2% but ≥0.2%))”. For the same compound, the “solid form after DVS cycle” value [2] was “remains as Form L” and the DVS mass increase ([2]; relative humidity from about 0% to about 95%) was “about 0.6%”.
For N#Cc1ccc(N2CCN(Cc3ccc(COc4cccc5c4CN([C@H]4CCC(=O)NC4=O)C5=O)cc3)CC2)c(F)c1.O=S(=O)(O)c1ccccc1 [Form B of a besylate salt of Compound 1], the “physical stability (XRPD)” value ([4]; 40° C., 40° C./75% RH, 60° C., 60° C./75% RH, and under light for 14 days) was “physically stable”, the “chiral purity (area % of S-isomer)” value ([4]; accelerated stability conditions, 14 days) was “above 99%” and the “Chemical purity (HPLC) on storage” value ([4]; accelerated stability conditions, 14 days, peak grows with temperature and humidity) was “showed degradation peak”. The hygroscopicity [2] was “slightly hygroscopic (slightly hygroscopic (mass increase of <2% but ≥0.2%))”, the “solid form after DVS cycle” value [2] was “remains as Form B” and the DVS mass increase [2, 8] was “about 1.75%”.
For N#Cc1ccc(N2CCN(Cc3ccc(COc4cccc5c4CN([C@H]4CCC(=O)NC4=O)C5=O)cc3)CC2)c(F)c1 [Form C of a free base of Compound 1], the “physical and chemical stability” value ([4]; accelerated stability conditions) was “physically and chemically stable”, the Solubility ([5]; FaSSIF) was 0.001 mg/mL (≈ 1.76 µM) and the Solubility ([5]; FeSSiF, listed as Form C) was 0.031 mg/mL (≈ 54.6 µM). For the same compound, the Solubility ([5]; SGF with pepsin, listed as Form C) was 0.427 mg/mL (≈ 752 µM), the Solubility ([5]; Water) was “<LOQ” and the Solubility ([5]; pH 1 buffer HC1/NaC1, listed as Form C) was 0.108 mg/mL (≈ 190 µM). The Solubility ([5]; pH 3 buffer (phosphate), listed as Form C) was 0.277 mg/mL (≈ 488 µM), the Solubility ([5]; pH 4 buffer (acetate), listed as Form C) was 0.065 mg/mL (≈ 115 µM) and the Solubility ([5]; pH 5 buffer (acetate), listed as Form C) was 0.003 mg/mL (≈ 5.29 µM). For the same compound, the “Final pH” value ([5]; solubility sample in FaSSIF, listed as Form C) was 6.44, the “Final pH” value ([5]; solubility sample in FeSSiF, listed as Form C) was 5.05 and the “Final pH” value ([5]; solubility sample in SGF with pepsin, listed as Form C) was 1.29. For the same compound, the “Final pH” value ([5]; solubility sample in Water, listed as Form C) was 6.86, the “Final pH” value ([5]; solubility sample in pH 1 buffer HC1/NaC1, listed as Form C) was 1.07 and the “Final pH” value ([5]; solubility sample in pH 3 buffer (phosphate), listed as Form C) was 3.31. For the same compound, the “Final pH” value ([5]; solubility sample in pH 4 buffer (acetate), listed as Form C) was 4.14, the “Final pH” value ([5]; solubility sample in pH 5 buffer (acetate), listed as Form C) was 5.11 and the “competitive slurry of Form C and Form K” value [6] was “gradual conversion of Form C to Form K”. For the same compound, the hygroscopicity ([2]; listed as Form C) was “hygroscopic (hygroscopic (mass increase of <15% but ≥2%))” and the DVS mass increase ([2]; relative humidity from about 5% to about 95%, listed as Form C) was “about 8.3%”.
With N#Cc1ccc(N2CCN(Cc3ccc(COc4cccc5c4CN([C@H]4CCC(=O)NC4=O)C5=O)cc3)CC2)c(F)c1 [Form D of a free base of Compound 1] the hygroscopicity ([2]; listed as Form D) was “slightly hygroscopic (slightly hygroscopic (mass increase of <2% but ≥0.2%))”, the “solid form after DVS cycle” value ([2]; listed as Form D) was “a mixture of Form B and Form E” and the DVS mass increase ([2]; relative humidity from about 5% to about 95%, listed as Form D) was “about 3.0%”.
With N#Cc1ccc(N2CCN(Cc3ccc(COc4cccc5c4CN([C@H]4CCC(=O)NC4=O)C5=O)cc3)CC2)c(F)c1 [Form K′ of a free base of Compound 1] the “form conversion on storage (XRPD)” value ([7]; 22% RH or above, ambient temperature) was “converts to K”, the “PXRD result after storage” value ([7]; stored at 17% r.h. and r.t. for 2.5 d) was “Form K” and the “solubility at pH 2.0” value ([1]; pH 2.0 buffer, fifteen minutes) was 0.93 mg/mL. For the same compound, the “solid residue after solubility measurement (powder X-ray diffraction)” value ([1]; pure water, pH 2.0 buffer and pH 6.8 buffer, fifteen minutes) was “Form K”.
In the case of Cl.N#Cc1ccc(N2CCN(Cc3ccc(COc4cccc5c4CN([C@H]4CCC(=O)NC4=O)C5=O)cc3)CC2)c(F)c1 [HC1 Salt], the Solubility ([5]; FaSSIF) is reported as 0.001 mg/mL, the Solubility ([5]; FeSSiF) is reported as 0.094 mg/mL and the Solubility ([5]; SGF with pepsin) is reported as 0.295 mg/mL. For the same compound, the Solubility ([5]; pH 1 buffer HC1/NaC1) was 0.071 mg/mL, the Solubility ([5]; pH 3 buffer (phosphate)) was 0.149 mg/mL and the Solubility ([5]; pH 4 buffer (acetate)) was 0.124 mg/mL. The Solubility ([5]; pH 5 buffer (acetate)) was 0.017 mg/mL, the “Final pH” value ([5]; solubility sample in FaSSIF) was 5.96 and the “Final pH” value ([5]; solubility sample in FeSSiF) was 4.99. For the same compound, the “Final pH” value ([5]; solubility sample in SGF with pepsin) was 1.28, the “Final pH” value ([5]; solubility sample in pH 1 buffer HC1/NaC1) was 1.05 and the “Final pH” value ([5]; solubility sample in pH 3 buffer (phosphate)) was 3.05. The “Final pH” value ([5]; solubility sample in pH 4 buffer (acetate)) was 4.00 and the “Final pH” value ([5]; solubility sample in pH 5 buffer (acetate)) was 4.83.
